Measurements taken from patent US11779597B2, “Method of treating Parkinson's and other neurodegenerative diseases” (Vector Vitale IP LLC, priority 2019, dated 2023).
“Also recorded” adds a separate entry of the source.

Tests used:
[1] = test system: rat peripheral blood neutrophils; test: Metabolic profile of nonsensitized rat peripheral blood neutrophils in vitro; type: cell-based
Description: Materials and methods: Rat microglial cells were isolated by mechanical (cell sieves) disintegration of the brain tissue (FIG. 30A, FIG. 30B and FIG. 30C) followed by fractionation of the tissue homogenate in Percoll density gradient (Microglia: Methods and Protocols, Edited by Bertrand Josef and Jose Luis Venero, Springer protocol. Humana Press, 2013, 350 p.) (FIG. 31). Before the collection of the brain tissue, decapitation was performed to avoid hemorrhage to the brain during sampling (FIG. 32). Decapitation was performed immediately after anesthesia to minimize the death of brain tissue, including microglial cells. All manipulations for the isolation of microglial cells were carried out using coolants. Circulating neutrophils were isolated from venous blood taken into a tube containing EDTA in a two-step Percoll gradient (Alsharif K F et al. Vascul Pharmacol. 2015 August; 71:201-7. doi: 10.1016/j.vph.2015.02.006)(FIG. 33A and FIG. 33B). Circulating monocytes were isolated from venous blood collected into a tube containing heparin in a two-step Hypaque gradient (Macrophages and dendritic cells: Methods and Protocols, Edited by Neil E. Reiner, NY, Humana Press, 2009: 368 P). The metabolic profile of phagocytes was characterized based on the pathway of arginine metabolism (levels of arginase activity and NO synthesis measured using photocolorimetric methods), the level of formation of intracellular reactive oxygen species (ROS) by esterases and the indices of phagocytic activity determined by flow cytofluorimetry, as well as according to the activation levels of NADH and NADPH oxidases determined in NBT test. Duration of treatment of phagocytes of all the above mentioned populations varied depending on the methodological characteristics of metabolic response. A 90 minute exposure to the drugs according to Kim et al., 1977 (cited above) was used to analyze their effects on oxidative metabolism and phagocytic activity. An 18 hour exposure according to Lastra et al., 2001 (cited above) was used to analyze the drug effects on arginine metabolic pathway. To analyze the effects of the drugs under study on the induced (stimulated) metabolic activity of phagocytes, the cells were treated with lipopolysaccharide (LPS) from E. coli (Sigma, USA) according to Haddad et al., 2009 (cited above).

[2] = test system: human T-lymphocytes (CD3+); test: Spontaneous and PHA-induced proliferative activity and activation-induced apoptosis of T-lymphocytes; type: cell-based; set-up: activation-induced T-cell apoptosis: dose or concentration left out as unconfirmed
Description: Materials and Methods: Peripheral blood mononuclear cells were isolated from a healthy donor by density gradient centrifugation over Histopaque-1077 (Sigma, USA). Phytohemagglutinin (PHA) (Sigma, USA) was used to activate the proliferative activity of T-lymphocytes. The cells were exposed to the action of both preparations for 48 hours. A stimulatory (with the addition of the drugs as single components) and costimulatory (with the addition of the drugs in combination with PHA) effects were assessed. CD3 phenotypic marker was used to selectively measure proliferative activity of T-lymphocytes. The T-cell proliferative activity was assessed by analyzing the DNA status of CD3+ cells using a flow cytometry technique. The results are presented in the form of a proliferative index, calculated by the following formula: […]

[3] = test system: LPS rat models of parkinsonism; test: Apomorphine test in LPS rat models of parkinsonism; type: in vivo
Description: Chronic dopamine deficiency of the left hemisphere was modeled by unilateral destruction of dopaminergic neurons in the Substantia nigra pars compacta portion of the brain. It was induced by stereotactic microinjections of 10 μg endotoxin (lipopolysaccharide) (Lipopolysaccharides from Escherichia coli O111:B4, cat. L2630 Sigma) dissolved in 2 μl sterile 0.9% NaCl (Infuzia CJSC, Ukraine). The solution was prepared on the day of a surgical procedure. A flask containing the resulting solution was sealed with a drop of silicone oil (STEP-E[…], Ukraine) and placed in a refrigerator.
An animal, anesthetized using a mixture of ketamine (75 mg/kg, diluted in sterile water for injection, Sigma, USA) and 2% xylazine ([…], Alfasan International B.V., Netherlands) administered intraperitoneally in a total volume of 1 ml, was placed in a stereotaxic apparatus (SEZH-4) modified for rats. The animal was then scalped and a trephine opening was made with an injection needle, directly into the substantia nigra (AP=−5.3; ML=±2.0; DV=−7.2). Dissolved LPS was collected into a home-made microinjector and its tip was dropped into the trephine opening.
Endotoxin at a dose of 10 μg in a volume of 2 μl was injected in the brain tissue at a rate of […] (every 15 seconds). After endotoxin was administered, the tip of the microinjector remained in the brain tissue for 5 minutes. The microinjector was then removed and stitches were put on the scalp soft tissues of the animal. Control animals were administered 2 μl sterile 0.9% NaCl, instead of LPS (sham operated animals).
The percentage of destroyed dopaminergic neurons was calculated using an apomorphine test. The intensity of rotational motions of an animal to the contralateral side of the hemisphere into which endotoxin was injected was assessed. A similar motor activity was induced by systemic intraperitoneal administration of apomorphine, a dopamine receptor agonist (0.5 mg/kg, Sigma, USA). The intensity of such rotational motions for 30 minutes indicated the degree of degradation of the nigrostriatal dopamine system (SA Talanov et al., Neurophysiology 38 (2), 128-133). The number of animals in which the number of rotations increased, decreased or remained unchanged within 30 minutes between apomorphine test I and II was quantified.
On the 1st day of the experiment, rats were either operated to model hemi-parkinsonism or sham operated. From the 9th to the 18th day of the experiment, the animals were injected either deuterium-depleted water or the test substance, according to their allocation into groups, for 10 days. […]

## ^64Zn-enriched zinc aspartate [^64Zne-asp]
[1]
  arginase activity of resting and bacterial LPS-treated neutrophils: remained practically unchanged
  esterase-dependent oxidative metabolism in neutrophils treated with bacterial LPS: sharp decrease
  intracellular ROS production by nonsensitized neutrophils: sharp decrease
  phagocytic activity of neutrophils: No statistically significant effect
  synthesis of reactive nitrogen species by neutrophils after treatment with LPS: moderately negative effect
  synthesis of reactive nitrogen species by resting neutrophils: no significant effect
[1]; irrespective of treatment with bacterial LPS
  ROS production dependent on NADH and NADPH oxidases (NBT test) in neutrophils: strong negative effect
[2]; drug used alone
  activation-induced T-cell apoptosis: did not have any effect
[2]; in combination with PHA, 48 hours
  PHA (mitogen)-induced proliferative activity of T-lymphocytes: stimulatory and costimulatory effects
[2]; in combination with the mitogen
  activation-induced T-cell apoptosis: significantly decreased
[2]; used separately from PHA, 48 hours
  spontaneous proliferative activity of CD3+ T-lymphocytes: dose-dependent weak stimulatory effect
[3]; 1.5 mg/kg i.v. for 10 days, 2 out of 14 animals
  rats with increased number of rotations between the 1st and 2nd apomorphine tests: 14.3%
[3]; 1.5 mg/kg i.v. for 10 days, 12 out of 14 animals
  rats with a fewer number of rotations between the 1st and 2nd apomorphine tests: 85.7%
[3]; LPS rats, 1.5 mg/kg i.v. for 10 days, listed as 64Zn-asp, 1.5 mg/kg
  difference in the mean number of rotations between the 1st and 2nd apomorphine tests: no significant difference; also recorded: did not cause a significant change
[3]; LPS rats, day 8, before start of treatment
  mean number of rotations, 1st apomorphine test: 91.2±107.7 rot./30 min
